Holding throughout (experiment): HIV-1 RT Assay
Assay [1] has as its target T1, Gag-Pol polyprotein [588-1027]/[588-1147] (Human immunodeficiency virus 1, UniProt P04585).
T1 construct: 588-1027; 588-1147

For assay [2], the target named is T2, Gag-Pol polyprotein [588-1027,K690N]/[588-1147,K690N] (Human immunodeficiency virus 1, UniProt P04585, K690N).
T2 construct: 588-1027; 588-1147

In assay [3] the target is T3, Gag-Pol polyprotein [588-1127,Y768C]/[588-1147,Y768C] (Human immunodeficiency virus 1, UniProt P04585, Y768C).
T3 construct: 588-1127; 588-1147

A value given as a limit tells only on which side of the number the result lay.

Consider `CN(C)c1ccc(F)c(CCNC(=O)Nc2ccc(Br)cn2)c1F`, for which the IC50 in assay [1] (pH 7.8, 37 °C) is 0.025 µM; in assay [2] (pH 7.8, 37 °C), more than 2.5 µM. Taken in the same sequence, the figures for `CCOc1ccc(F)c(CCNC(=O)Nc2ccc(Br)cn2)c1Cl` were 0.004 µM and more than 2.4 µM. In the case of `COc1ccc(OC)c(CCNC(=O)Nc2ccc(Cl)cn2)c1F` [1-(5-chloropyridin-2-yl)-3-[2-(2-fluoro-3,6-dimethoxyphenyl)ethyl]urea], 0.003 µM corresponded to half-maximal inhibition in assay [1] (pH 7.8, 37 °C) (IC50). For the compound `COc1c(C(C)=O)ccc(F)c1CCNC(=O)Nc1ccc(Cl)cn1` [1-(5-chloropyridin-2-yl)-3-[2-(3-acetyl-6-fluoro-2-methoxyphenyl)ethyl]urea], in assay [2] (pH 7.8, 37 °C), the IC50 was more than 2.7 µM. The same measure, in the same setting: the figure for `COc1ccc(C(C)=O)c(F)c1CCNC(=O)Nc1ccc(Cl)cn1` [N-[2-(3-Acetyl-2-fluoro-6-methoxyphenethyl)]-N-[2-(5-chloropyridy)]urea] is more than 2.7 µM. For `O=C(Nc1ccc(Cl)cn1)NC1CC1c1c(F)ccc(O)c1Cl` (stereo not drawn) [N-[cis-2-(2-Chloro-6-fluoro-3-hydroxyphenyl)cyclopropyl]-N-[2-(5-chloropyridyl)]urea], the IC50 in assay [2] is more than 2.7 µM. `CCC(=O)c1ccc(F)c(C2CC2NC(=O)Nc2ccc(C#N)cn2)c1O` (stereo not drawn) [N-[cis-2-(6-Fluoro-2-hydroxy-3-propionylphenyl)cyclopropyl]-N-[2-(5-cyanopyridyl)]urea] displayed an IC50 in assay [2] of 0.097 µM. In the case of `COc1ccc2c(c1)N(C(=O)OC(C)C)[C@@H](CSC)C(=S)N2` [propan-2-yl (2S)-7-methoxy-2-[(methylsulfanyl)methyl]-3-sulfanylidene-1,2,3,4-tetrahydroquinoxaline-1-carboxylate], the IC50 in assay [1] was found to be 0.008 µM; in assay [2], 0.056 µM; in assay [3] it was 0.009 µM.

As a reminder, the IC50 is the concentration that gives 50% inhibition. Read a low IC50 as inhibition by little substance.

(Values after BindingDB's records for doi:10.1021/jm990095j (Medivir, 1999).)
